Results published in patent US8765785B2, “Solifenacin salts” (Crystal Pharma, S.A.U., priority 2010, dated 2014).
Like-named read-outs stand apart in the source and are kept apart here.

Key:
Type in all cases: physicochemical
[1] = Stability of the solid salt on standing (colour, UV-HPLC method 2)
Method: HPLC Method 2: To Follow the End Points of the Reactions Performed and the Rest of the Impurities:
(§1) 10 g of solifenacin succinate (example 2) were dissolved in 15 mL of water. The solution was frozen by nitrogen liquid and was placed in the freeze-drying equipment at −60° C. under vacuum.

Solubility in water = experiment: Solubility in water
Method: Therefore, when the procedure to obtain tablets comprising solifenacin fumarate is carried out by wet granulation, the presence of water is not such an important factor.
However, the low solubility of the solifenacin fumarate avoids this problem. The difference in solubility also makes it easier to obtain solid pharmaceutical compositions of solifenacin fumarate since the drying phase is reduced.

[2] = Conversion of the crystalline salt to the amorphous form (lyophilization, vacuum evaporation; PXRD, DSC); settings: for solid form after lyophilization of an aqueous solution: freeze-drying, -60° C. under vacuum, 15 hours, PXRD and DSC
Method: as §1
10 g of solifenacin fumarate (example 1) were dissolved in 600 ml of water at 60° C. The solution was frozen by nitrogen liquid and was placed in the freeze-drying equipment at −60° C. under vacuum.
5 g of solifenacin fumarate (example 1) was dissolved in 50 ml of methanol (1% of water) and evaporated under vacuum at 50° C.

[3] = Stability of tablets of solifenacin salts over 0, 3 and 6 months (Example 9); settings: for DESCRIPTION: film-coated tablets (Example 8); for course of the amount of F1 impurity: 6 month period
Method: To test the stability of solifenacin fumarate, tablets are prepared by wet granulation following the procedure disclosed in US 2008/039516, the contents of which are incorporated in their entirety. A specific example of preparing a tablet containing solifenacin fumarate is given in […] below.
25 parts by weight of Hypromellose (Pharmacoat 603) are dissolved and agitated in 130 parts of purified water with an air motor stirrer (IMA) to prepare a binder solution (at a concentration of 20.0% (w/v)). Then, 50 parts of solifenacin salt, 389 parts of lactose monohydrate (Granulac) and 128 parts of corn starch (C*PharmGel 03406) are mixed together (pre-mix) in a single pot granulator (IMA Zanchetta 3 L capacity).
The binder solution is sprayed over the pre-mix at room temperature with a flow rate of 60 ml/min, impeller speed of 300 rpm and chopper speed of 1500 rpm for wet granulation. After spraying, kneading takes place for 3 min with impeller speed of 300 rpm. After granulation, the granules are dried at a charged temperature of the jacket bowl of 80° C. under vacuum conditions, tilting movement of the bowl of 90° and intermittent speed (120 rpm) of the impeller for 120 seconds.
The granules are dried until a final moisture of 2.5%-1.0% has been reached. 6 parts of magnesium stearate are added to the dried granules for blending with a biconic mixer (SAR Labortecnic). Thereafter, the resulting mixture is compressed with a rotary tabletting machine (KILIAN IMA Pressima) with 6.0 mm punches at a compression pressure sufficient to achieve a hardness of the tablet of more than 50 N and a tablet weight of 60 mg.
The resulting tablets are coated in a non perforated pan (IMA, type HT25). Coating is performed with a solution prepared by dissolving 20 parts of Opadry II pink (Colorcon) in 200 parts of purified water using an air motor stirrer (IMA). Coating is achieved at a charge air temperature of 60-80° C., a pan rotation velocity of 6-13 rpm, and coating fluid feed rate of 16-40 ml/min for a 3.3% ratio of the component to the tablet weight, to obtain the film-coated tablet.
The stability of tablets formulated with solifenacin succinate and solifenacin fumarate, respectively, was tested in a side-by-side comparison. […] For both salts the amount of solifenacin was assayed by HPLC at 0, 3 and 6 months and the amount of “F1 impurity” was also measured. The results are provided in the tables below and are illustrated in FIGS. 9 and 10.

Molecule	solid form after lyophilization of an aqueous solution [2]	DESCRIPTION ([3]; 3 MONTHS)	DESCRIPTION ([3]; 6 MONTHS)	DESCRIPTION ([3]; INITIAL)	ASSAY AMOUNT (amount of solifenacin by HPLC) ([3]; tablets, 3 MONTHS)	CHROMATOGRAPHIC IMPURITY (F1 impurity) ([3]; tablets, 3 MONTHS)	HARDNESS ([3]; tablets, 3 MONTHS)	LOSS ON DRYING ([3]; tablets, 3 MONTHS)	MEDIUM WEIGHT ([3]; tablets, 3 MONTHS)	ASSAY AMOUNT (amount of solifenacin by HPLC) ([3]; tablets, 6 MONTHS)	CHROMATOGRAPHIC IMPURITY (F1 impurity) ([3]; tablets, 6 MONTHS)	HARDNESS ([3]; tablets, 6 MONTHS)	LOSS ON DRYING ([3]; tablets, 6 MONTHS)	MEDIUM WEIGHT ([3]; tablets, 6 MONTHS)	course of the amount of F1 impurity ([3]; tablets)	ASSAY AMOUNT (amount of solifenacin by HPLC) ([3]; tablets, INITIAL)	CHROMATOGRAPHIC IMPURITY (F1 impurity) ([3]; tablets, INITIAL)	HARDNESS ([3]; tablets, INITIAL)	LOSS ON DRYING ([3]; tablets, INITIAL)	MEDIUM WEIGHT ([3]; tablets, INITIAL)	also measured
O=C(O[C@H]1CN2CCC1CC2)N1CCc2ccccc2[C@@H]1c1ccccc1 [amorphous form of solifenacin succinate, solifenacin succinate]																					amount of new impurity with relative retention time 0.93 ([1]; left to stand for ten days, HPLC method 2): 0.14%; time until the white solid turned colored ([1]; solid on standing): 2 to 3 days; colour change of the white solid ([1]; three days after freeze-drying): turned brown-colored
O=C(O[C@H]1CN2CCC1CC2)N1CCc2ccccc2[C@@H]1c1ccccc1 [solifenacin succinate]	quite easy to obtain the desired amorphous form	pink biconvex	pink biconvex	pink biconvex	96.8%	<0.06%	98N	2.43%	124.80 mg	94.7%	0.91%	102N	2.39%	126.26 mg	increases in the 6 month period	98.7%	<0.05%	98N	2.40%	125.57 mg	solubility (Solubility in water): 727 mg/mL; colouring / instability on standing [1]: do not have this problem
solifenacin fumarate	crystalline form	pink biconvex	pink biconvex	pink biconvex	99.4%	<0.05%	73N	2.01%	124.21 mg	99.6%	<0.05%	66N	2.24%	125.51 mg	remains at the constant low level	98.2%	<0.05%	75N	2.05%	124.54 mg	solubility in water (Solubility in water): 11.25 mg/mL; solid form after lyophilization of an aqueous solution ([2]; listed as fumarate salt): remains crystalline; solid form after evaporation under vacuum ([2]; methanol (1% of water), evaporated under vacuum at 50° C.): crystalline form; stability in tablets, conclusion in words ([3]; tablets, 6 month side-by-side comparison): much more stable than the succinate salt; colouring / instability on standing ([1]; crystalline forms): do not have this problem
